{"source": "paper PMC8373216", "about": "“Development and Preclinical Evaluation of New Inhaled Lipoglycopeptides for the Treatment of Persistent Pulmonary Methicillin-Resistant Staphylococcus aureus Infections” (Antimicrobial Agents and Chemotherapy, 2021)", "key": {"[1]": {"system": "Peptostreptococcus anaerobius", "experiment": "Expanded panel broth microdilution MIC", "type": "cell-based"}, "[2]": {"system": "Staphylococcus epidermidis", "experiment": "Expanded panel broth microdilution MIC/MBC", "type": "cell-based", "conditions": "for MIC: Staphylococcus epidermidis"}, "[3]": {"system": "Cutibacterium acnes", "experiment": "Expanded panel broth microdilution MIC", "type": "cell-based"}, "[4]": {"system": "MRSA ATCC BAA 1556 (USA300)", "experiment": "In-house broth microdilution MIC screening", "type": "cell-based, Staphylococcus aureus", "conditions": "Staphylococcus aureus, read-out: MIC Value, MRSA ATCC BAA 1556"}, "[5]": {"system": "Clostridium. perfringens", "experiment": "microbe, parasite or virus in culture", "type": "cell-based"}, "[6]": {"system": "Streptococcus pneumoniae", "experiment": "Expanded panel broth microdilution MIC/MBC", "type": "cell-based"}, "[7]": {"system": "Streptococcus mitis", "experiment": "Expanded panel broth microdilution MIC/MBC", "type": "cell-based", "conditions": "for MIC: Streptococcus mitis"}, "[8]": {"system": "Clostridioides difficile", "experiment": "Expanded panel broth microdilution MIC", "type": "cell-based"}, "[9]": {"system": "Streptococcus oralis", "experiment": "Expanded panel broth microdilution MIC", "type": "cell-based"}, "[10]": {"system": "Streptococcus agalactiae", "experiment": "Expanded panel broth microdilution MIC/MBC", "type": "cell-based"}, "[11]": {"system": "Staphylococcus haemolyticus", "experiment": "Expanded panel broth microdilution MIC", "type": "cell-based"}, "[12]": {"system": "Streptococcus dysgalactiae", "experiment": "Expanded panel broth microdilution MIC/MBC", "type": "cell-based", "conditions": "for MIC: Streptococcus dysgalactiae"}, "[13]": {"system": "Staphylococcus hominis", "experiment": "Expanded panel broth microdilution MIC", "type": "cell-based"}, "[14]": {"system": "Staphylococcus lugdunensis", "experiment": "Expanded panel broth microdilution MIC", "type": "cell-based"}}, "note": "Like-named read-outs stand apart in the source and are kept apart here."}
{"smiles": "CCCCCCCCCCNCCN[C@@]1(C)C[C@H](O[C@H]2[C@H](Oc3c4cc5cc3Oc3ccc(cc3Cl)[C@@H](O)[C@@H](NC(=O)[C@@H](CC(C)C)NC)C(=O)N[C@@H](CC(N)=O)C(=O)N[C@H]5C(=O)N[C@H]3C(=O)N[C@H](C(=O)N[C@H](C(=O)O)c5cc(O)c(CNCP(=O)(O)O)c(O)c5-c5cc3ccc5O)[C@H](O)c3ccc(c(Cl)c3)O4)O[C@H](CO)[C@@H](O)[C@@H]2O)O[C@@H](C)[C@H]1O", "note": "[Telavancin, telavancin]", "values": [{"measurement": "MIC", "setting": "[1]", "result": 0.03, "unit": "µg/mL"}, {"measurement": "MIC", "setting": "[1]; ATCC27337", "result": 0.03, "unit": "µg/mL"}, {"measurement": "MIC:MBC", "setting": "[2]; S. epidermidis MRSE, MBC on one organism", "result": 1}, {"measurement": "MIC", "setting": "[2]; ATCC49134, S. epidermidis ATCC 49134, MSSE", "result": 0.12, "unit": "µg/mL"}, {"measurement": "MIC", "setting": "[2]; MRSE, S. epidermidis MMX 762, MRSE", "result": 0.12, "unit": "µg/mL"}, {"measurement": "MIC", "setting": "[2]; MRSE, S. epidermidis MMX 5145, MRSE", "result": 0.03, "unit": "µg/mL"}, {"measurement": "MIC", "setting": "[2]; MRSE, read-out: MIC (median), S. epidermidis MRSE, 2 isolates", "result": 0.12, "unit": "µg/mL"}, {"measurement": "MIC", "setting": "[2]; S. epidermidis MSSE, 1 isolate", "result": 0.12, "unit": "µg/mL"}, {"measurement": "MIC", "setting": "[3]; ATCC6919", "result": 0.03, "unit": "µg/mL"}, {"measurement": "MIC", "setting": "[3]; ATCC11827", "result": 0.015, "unit": "µg/mL"}, {"measurement": "MIC", "setting": "[3]; read-out: MIC (median)", "result": 0.02, "unit": "µg/mL"}, {"measurement": "MIC", "setting": "[4]", "result": 0.063, "unit": "µg/mL"}, {"measurement": "MIC", "setting": "[5]", "result": 0.015, "unit": "µg/mL"}, {"measurement": "MIC", "setting": "[5]; ATCC13124, read-out: MIC", "result": 0.015, "unit": "µg/mL"}, {"measurement": "MIC:MBC", "setting": "[6]; S. pneumoniae PISP, MBC on one organism", "result": 1}, {"measurement": "MIC", "setting": "[6]; S. pneumoniae PRSP, 1 isolate", "result": 0.03, "unit": "µg/mL"}, {"measurement": "MIC", "setting": "[6]; Streptococcus pneumoniae", "result": 0.015, "unit": "µg/mL"}, {"measurement": "MIC", "setting": "[6]; Streptococcus pneumoniae, ATCC49619", "result": 0.03, "unit": "µg/mL"}, {"measurement": "MIC", "setting": "[6]; Streptococcus pneumoniae, PRSP", "result": 0.03, "unit": "µg/mL"}, {"measurement": "MIC", "setting": "[6]; Streptococcus pneumoniae, read-out: MIC (median)", "result": 0.02, "unit": "µg/mL"}, {"measurement": "MIC:MBC", "setting": "[7]; S. mitis MGS, MBC on one organism", "result": 1}, {"measurement": "MIC", "setting": "[7]", "result": 0.03, "unit": "µg/mL"}, {"measurement": "MIC", "setting": "[7]; ATCC49456", "result": 0.06, "unit": "µg/mL"}, {"measurement": "MIC", "setting": "[7]; read-out: MIC (median)", "result": 0.05, "unit": "µg/mL"}, {"measurement": "MIC", "setting": "[8]; ATCCBAA1805, C. difficile ATCC BAA-1805, ribo 027", "result": 0.12, "unit": "µg/mL"}, {"measurement": "MIC", "setting": "[8]; ATCCBAA1870, C. difficile ATCC BAA-1870, NAP1;ribo 027", "result": 0.12, "unit": "µg/mL"}, {"measurement": "MIC", "setting": "[8]; C. difficile ATTC 700057, toxAB-", "result": 0.12, "unit": "µg/mL"}, {"measurement": "MIC", "setting": "[8]; C. difficile NAP1;ribo 027, 1 isolate", "result": 0.12, "unit": "µg/mL"}, {"measurement": "MIC", "setting": "[8]; C. difficile ribo 027, 1 isolate", "result": 0.12, "unit": "µg/mL"}, {"measurement": "MIC", "setting": "[8]; C. difficile toxAB-, 1 isolate", "result": 0.12, "unit": "µg/mL"}, {"measurement": "MIC", "setting": "[9]; S. oralis MGS, 1 isolate", "result": 0.06, "unit": "µg/mL"}, {"measurement": "MIC", "setting": "[9]; Streptococcus oralis", "result": 0.06, "unit": "µg/mL"}, {"measurement": "MIC", "setting": "[10]; S. agalactiae MMX 4115, ermR", "result": 0.06, "unit": "µg/mL"}, {"measurement": "MIC", "setting": "[10]; S. agalactiae ermR, 1 isolate", "result": 0.06, "unit": "µg/mL"}, {"measurement": "MIC:MBC", "setting": "[10]; S. agalactiae, MBC on one organism", "result": ">8"}, {"measurement": "MIC", "setting": "[10]; Streptococcus agalactiae", "result": 0.06, "unit": "µg/mL"}, {"measurement": "MIC", "setting": "[10]; Streptococcus agalactiae, ATCC13813", "result": 0.06, "unit": "µg/mL"}, {"measurement": "MIC", "setting": "[10]; Streptococcus agalactiae, read-out: MIC (median)", "result": 0.06, "unit": "µg/mL"}, {"measurement": "MIC", "setting": "[11]", "result": 0.06, "unit": "µg/mL"}, {"measurement": "MIC", "setting": "[11]; ATCC29970", "result": 0.06, "unit": "µg/mL"}, {"measurement": "MIC:MBC", "setting": "[12]; S. dysgalactiae, MBC on one organism", "result": 4}, {"measurement": "MIC", "setting": "[12]; S. dysgalactiae MMX 5121", "result": 0.12, "unit": "µg/mL"}, {"measurement": "MIC", "setting": "[12]; S. dysgalactiae MMX 5123", "result": 0.25, "unit": "µg/mL"}, {"measurement": "MIC", "setting": "[12]; S. dysgalactiae MMX 5124", "result": 0.03, "unit": "µg/mL"}, {"measurement": "MIC", "setting": "[12]; read-out: MIC (median), S. dysgalactiae, 3 isolates", "result": 0.12, "unit": "µg/mL"}, {"measurement": "MIC", "setting": "[13]", "result": 0.06, "unit": "µg/mL"}, {"measurement": "MIC", "setting": "[13]; ATCC27844", "result": 0.06, "unit": "µg/mL"}, {"measurement": "MIC", "setting": "[14]; S. lugdunensis, 1 isolate", "result": 0.06, "unit": "µg/mL"}, {"measurement": "MIC", "setting": "[14]; Staphylococcus lugdunensis", "result": 0.06, "unit": "µg/mL"}]}
